Reference: patent US20120309728A1, “NEW STEROID INHIBITORS OF PGP FOR USE FOR INHIBITING MULTIDRUG RESISTANCE” (priority 2009, published 2012)

Assays:
[1] = system: K562/R7 cells; assay: Cytotoxicity assay using MTT reagent, with doxorubicin plus steroid modulator; format: cell-based, human; conditions: for Surviving cells R7 cells (% untreated cells): doxorubicin 10^−6M + steroid modulator 10^−6M, 72 h; for activity compared with cyclosporine A (in words): comment on Table 2 bis, R7 cells
Procedure: Doxorubicin at 10^−6 M was then added to each well. After incubation for 72 h, 20 μL of MTT reagent (5 mg/mL in PBS buffer) were added to each well and the plate was further incubated for 4 h at 37° C., allowing viable cells to change the yellow MTT into dark-blue formazan crystals. Supernatants were carefully discarded and 100 μL of isopropanol containing 10% HCL 1M were added to dissolve the formazan crystals. Absorbance in each well was determined at 570 nm using a microplate reader (MultisKan EX, Thermo Electron). […] At least three different experiments were performed. Results were expressed as the percentage of surviving cells in each well compared to untreated cells.

[2] = system: R7 cells; assay: Intracellular accumulation of daunorubicin measured by flow cytometry; format: cell-based, human; conditions: for Daunorubicin accumulation: daunorubicin 10 μM, compound 10 μM, 1 h at 37° C.
Procedure: The accumulation of daunorubicin in the presence of steroid modulators according to the invention, i.e. compounds having formula (I), was measured by flow cytometry using a reported procedure (G. Comte et al, J. Med. Chem., 44: 763-768, 2001). K562 or R7 cells ([…]) were incubated for 1 h at 37° C. with 1 mL RPMI 1640 medium containing daunorubicin at 10 μM, in the presence or absence of compounds of the invention (10 μM). The cells were then washed twice with ice-cold PBS and kept on ice until analysis by flow cytometry on a FACS-II (Becton-Dickinson Corp., Mountain View, Calif.). Assays were performed in duplicate, in at least three separate experiments.

[3] = system: K562/R7 cells; assay: Determination of IC50 for cytotoxics ([^3H]thymidine incorporation); conditions: R7 cells, 24 h treatment
Procedure: After treatment, the number of surviving cells was evaluated by the incorporation of [^3H]thymidine as described above.

Row | Compound | Surviving cells R7 cells (% untreated cells) [1] [% untreated cells] | Daunorubicin accumulation [2] | also measured
1 | CC(=O)C1CCC2C3C[C@@H](OC(=O)c4ccccc4)[C@@H]4CC(=O)CCC4(C)C3[C@H](OC3CCCCO3)CC12C (mixture of isomers) [Compound 217, 6β-Benzoyloxy-11α-O-[2′(R and S)]tetrahydropyranyloxy(5β)pregnan-3,20-dione] | 5.5 ± 0.4 |  | 
2 | CC(=O)C1CCC2C3C[C@@H](OC(=O)c4ccccc4)[C@@H]4CC(=O)CCC4(C)C3[C@H](OC3CCCCO3)CC12C (mixture of isomers) [Compound 218, 6β-Benzoyloxy-11α-O-[2′(R and S)]tetrahydropyranyloxy(5β)pregnan-3,20-dione] | 6.2 ± 1.1 |  | 
3 | COC(=O)CC[C@@H](C)[C@H]1CC[C@H]2[C@@H]3[C@H](OC(=O)c4ccccc4)CC4CC(=O)CC[C@]4(C)[C@H]3C[C@H](O[C@@H]3CCCCO3)[C@]12C (single isomer, unassigned) [Compound 60] | 2.2 ± 0.3 | 79.8 ± 6.1 % of the accumulation measured in the presence of cyclosporine A | 
4 | CC(=O)C1CCC2C3C(CC[C@]12C)[C@@]1(C)CCC(=O)C=C1C[C@@H]3OC1CCCCO1 (stereo partly drawn) [Compound 3, 7beta-O-[2′(R+S)]Tetrahydropyranyloxypregn-4-ene-3,20-dione] |  | 108.78 ± 4.27 % of the accumulation measured in the presence of cyclosporine A | 
5 | CC(=O)C1CCC2C3CC[C@@H]4CC(=O)CC[C@]4(C)C3[C@H](OC3CCCCO3)C[C@]12C (stereo partly drawn) [Compound 7, 11α-O-[2′(R)]Tetrahydropyranyloxy(5β)pregnane-3,20-dione] |  | 103.0 ± 1.86 % of the accumulation measured in the presence of cyclosporine A | 
6 | CC(=O)[C@@]1(OC2CCCCO2)CCC2C3CCC4=CC(=O)CC[C@]4(C)C3CC[C@@]21C (stereo partly drawn) [Compound 11, 17alpha-O-[2′(R)]Tetrahydropyranyloxypregn-4-ene-3,20-dione] |  | 108.08 ± 6.28 % of the accumulation measured in the presence of cyclosporine A | 
7 | CC(=O)[C@H]1CC[C@H]2[C@H]3[C@H]([C@H](OC(=O)c4ccccc4)C[C@]12C)[C@@]1(C)CCC(=O)C[C@H]1C[C@H]3OC(=O)c1ccccc1 [Compound 30, 7alpha,11alpha-Di benzoyloxy(5beta)pregnane-3,20-dione] |  | 75.39 ± 0.39 % of the accumulation measured in the presence of cyclosporine A | 
8 | CC(=O)C1CCC2C3C([C@H](OC4CCCCO4)C[C@]12C)[C@@]1(C)CCC(=O)C[C@H]1C[C@H]3OC(=O)c1ccccc1 (stereo partly drawn) [Compound 32, 7α-Benzoyloxy-11α-O-[2′(S)]tetrahydropyranyloxy (5β)pregnane-3,20-dione] |  | 103.88 ± 4.53 % of the accumulation measured in the presence of cyclosporine A | 
9 | CC(=O)C1CCC2C3C([C@H](OC4CCCCO4)C[C@]12C)[C@@]1(C)CCC(=O)C[C@H]1C[C@@H]3OC(=O)c1ccccc1 (stereo partly drawn) [Compound 39, 7β-Benzoyloxy-11α-O-[2′(S)]tetrahydropyranyloxy(5β)pregnane-3,20-dione] |  | 109.0 ± 1.0 % of the accumulation measured in the presence of cyclosporine A | 
10 | CC(=O)C1CCC2C3C([C@H](OC4CCCCO4)C[C@]12C)[C@@]1(C)CCC(=O)C[C@H]1C[C@@H]3OC(=O)c1ccccc1 (stereo partly drawn) [Compound 40, 7β-Benzoyloxy-11α-O-[2′(R)]tetrahydropyranyloxy(5β) pregnane-3,20-dione] |  | 89.5 ± 0.5 % of the accumulation measured in the presence of cyclosporine A | 
11 | CC(=O)[C@H]1CC[C@H]2[C@H]3[C@H]([C@H](OC(=O)c4ccccc4)C[C@]12C)[C@@]1(C)CCC(=O)C[C@H]1C[C@@H]3OC(=O)c1ccccc1 [Compound 41, 7β,11α-Dibenzoyloxy(5β)pregnane-3,20-dione] |  | 73.3 ± 0.5 % of the accumulation measured in the presence of cyclosporine A | 
12 | CC(=O)[C@@]1(OC2CCCCO2)CCC2C3CC[C@@H]4CC(=O)CC[C@]4(C)C3[C@H](OC3CCCCO3)C[C@@]21C (stereo partly drawn) [Compound 52, 11α,17α-Bis-O-[2′(R),2′(R)]tetrahydropyranyloxy(5β)pregnane-3,20-dione] |  | 102.01 ± 2.0 % of the accumulation measured in the presence of cyclosporine A | accumulation of daunorubicin compared in words with cyclosporine A or progesterone [2]: equivalent to that observed with cyclosporine A
13 | CC(=O)[C@@]1(O[C@H]2CCCCO2)CC[C@H]2[C@@H]3CC[C@@H]4CC(=O)CC[C@]4(C)[C@H]3[C@H](O[C@H]3CCCCO3)C[C@@]21C [Compound 53, 11α,17α-Bis-O-[2′(S),2′(S)]Tetrahydropyranyloxy(5β)pregnane-3,20-dione] |  | 107.0 ± 5.0 % of the accumulation measured in the presence of cyclosporine A | accumulation of daunorubicin compared in words with cyclosporine A or progesterone [2]: equivalent to that observed with cyclosporine A
14 | COC(=O)CC[C@@H](C)[C@H]1CC[C@H]2[C@@H]3[C@H](OC(=O)c4ccccc4)CC4CC(=O)CC[C@]4(C)[C@H]3C[C@H](OC(=O)c3ccccc3)[C@]12C (stereo partly drawn) [Compound 57, Methyl 3-oxo-7alpha,12alpha-dibenzoyloxycholanate] |  | 74 ± 1.0 % of the accumulation measured in the presence of cyclosporine A | 
15 | COC(=O)CC[C@@H](C)[C@H]1CC[C@H]2[C@@H]3[C@H](OC(=O)c4ccccc4)CC4CC(=O)CC[C@]4(C)[C@H]3C[C@H](O[C@H]3CCCCO3)[C@]12C (stereo partly drawn) [Compound 59, Methyl 3-oxo-7α-benzoyloxy-12α-O-[2′(S)]tetrahydropyranyloxycholanate] | 1.8 ± 0.1 | 85.8 ± 2.6 % of the accumulation measured in the presence of cyclosporine A | 
16 | COC(=O)CC[C@@H](C)[C@H]1CC[C@H]2[C@@H]3[C@H](O[C@H]4CCCCO4)CC4CC(=O)CC[C@]4(C)[C@H]3C[C@H](OC(=O)c3ccccc3)[C@]12C (stereo partly drawn) [Compound 63, methyl 3-oxo-12α-benzoyloxy-7α-O-[2′(S)]tetrahydro-pyranyloxycholanate] | 0.7 ± 0.06 | 104.7 ± 7.0 % of the accumulation measured in the presence of cyclosporine A | activity compared with cyclosporine A (in words) [1]: activity higher than that of the reference compound cyclosporine A
17 | COC(=O)CC[C@@H](C)[C@H]1CC[C@H]2[C@@H]3[C@H](O[C@@H]4CCCCO4)CC4CC(=O)CC[C@]4(C)[C@H]3C[C@H](OC(=O)c3ccccc3)[C@]12C (stereo partly drawn) [Compound 64, methyl 3-oxo-12α-benzoyloxy-7α-O-[2′(R)]tetra-hydropyranyloxycholanate] | 0.8 ± 0.06 | 10.0 ± 1.5 % of the accumulation measured in the presence of cyclosporine A | activity compared with cyclosporine A (in words) [1]: activity higher than that of the reference compound cyclosporine A
18 | COCCC[C@@H](C)[C@H]1CC[C@H]2[C@@H]3[C@H](OC(=O)c4ccccc4)CC4CC(=O)CC[C@]4(C)[C@H]3C[C@H](OC(=O)c3ccccc3)[C@]12C (stereo partly drawn) [Compound 71, 3-oxo-7α,12α-dibenzoyloxy-24-methoxycholane] |  | 50.50 ± 7.5 % of the accumulation measured in the presence of cyclosporine A | 
19 | COCCC[C@@H](C)[C@H]1CC[C@H]2[C@@H]3[C@H](O[C@H]4CCCCO4)CC4CC(=O)CC[C@]4(C)[C@H]3C[C@H](OC(=O)c3ccccc3)[C@]12C (stereo partly drawn) [Compound 73, 3-oxo-12α-benzoyloxy-7α-O-[2′(S)]tetrahydro-pyranyloxy-24-methoxycholane] |  | 63.5 ± 5.5 % of the accumulation measured in the presence of cyclosporine A | 
20 | COCCC[C@@H](C)[C@H]1CC[C@H]2[C@@H]3[C@H](O[C@@H]4CCCCO4)CC4CC(=O)CC[C@]4(C)[C@H]3C[C@H](OC(=O)c3ccccc3)[C@]12C (stereo partly drawn) [Compound 74, 3-oxo-12α-benzoyloxy-7α-O-[2′(R)]tetrahydropyranyloxy-24-methoxycholane] |  | 68.0 ± 15.0 % of the accumulation measured in the presence of cyclosporine A | 
21 | CC(=O)[C@H]1CC[C@H]2[C@H]3[C@H]([C@H](O)C[C@]12C)[C@@]1(C)CCC(=O)C[C@H]1C[C@H]3OC1CCCCO1 (stereo partly drawn) [Compound 204, 7α-O-[2′(R+S)]Tetrahydropyranyloxy-11α-hydroxy(5β)pregnane-3,20-dione] | 2.8 ± 0.7 | 87.4 ± 3.5 % of the accumulation measured in the presence of cyclosporine A | 
22 | COC(=O)CC[C@@H](C)C1CCC2C3C[C@H](OC4CCCCO4)[C@@H]4CC(=O)CCC4(C)C3CCC21C (stereo partly drawn) [Compound 210, Methyl 3-oxo-6α-O-[2′(R+S)]tetrahydropyranyloxycholanate] | 4.1 ± 1.1 | 66.7 ± 1.8 % of the accumulation measured in the presence of cyclosporine A | 
23 | COc1cc2c(c(OC)c1OC)-c1ccc(OC)c(=O)cc1[C@@H](NC(C)=O)CC2 [colchicine] |  |  | resistance of the cells to the cytotoxic drug (in words) [3]: resistant
24 | CC(=O)[C@H]1CC[C@H]2[C@@H]3CCC4=CC(=O)CC[C@]4(C)[C@H]3CC[C@]12C [progesterone, reference compound] |  | 36.27 ± 4.9 % of the accumulation measured in the presence of cyclosporine A | 
25 | Cyclosporine A [reference compound] | 1.6 ± 0.5 |  | 
